Reference: ChEMBL document CHEMBL3885881, “DrugMatrix”
Values joined by “and” are separate entries in the source; they are usually repeats but may differ in a detail not shown here. Equal entries are not always repeated.

Species on record: Rattus norvegicus
Assay: DrugMatrix - Regimen: Daily Repeat
Format: toxicity, organism-based, Sprague-Dawley
Parameters: regimen Daily Repeat, gender Male, age 6-8 weeks
Details: in vivo, ip, route intraperitoneal, vehicle 100 % SALINE; for ABSOLUTE BASOPHIL / ABSOLUTE EOSINOPHIL / ABSOLUTE LYMPHOCYTE / ABSOLUTE MONOCYTE / ABSOLUTE SEGMENTED NEUTROPHIL / BASOPHIL / EOSINOPHIL / ERYTHROCYTE COUNT / HEMATOCRIT / HEMOGLOBIN / LEUKOCYTE COUNT / LYMPHOCYTE / MEAN CORPUSCULAR HEMOGLOBIN / MEAN CORPUSCULAR HEMOGLOBIN CONCENTRATION / MEAN CORPUSCULAR VOLUME / MONOCYTE / NEUTROPHIL / PLATELET COUNT: tissue Blood; for ALANINE AMINOTRANSFERASE / ALBUMIN / ALKALINE PHOSPHATASE / ASPARTATE AMINOTRANSFERASE / BLOOD UREA NITROGEN / CARBON DIOXIDE / CHLORIDE / CHOLESTEROL / CREATINE PHOSPHOKINASE / CREATININE / GLUCOSE / LACTATE DEHYDROGENASE / LIPASE / PHOSPHORUS / POTASSIUM / SODIUM / TOTAL BILIRUBIN / TOTAL PROTEIN / URIC ACID: tissue Plasma
[1] = 0 mg/kg, 120 h, dose level Control, time 5 day
[2] = 0 mg/kg, […], dose level Control, time 14 day
[3] = 0 mg/kg, […], dose level Control, time 28 day
[4] = 40 mg/kg, 120 h, dose level High, time 5 day
[5] = 40 mg/kg, […], dose level High, time 14 day
[6] = 40 mg/kg, […], dose level High, time 28 day

SMILES: CCN[C@@H]1C[C@H](N)[C@@H](O[C@H]2OC(CN)=CC[C@H]2N)[C@H](O)[C@H]1O[C@H]1OC[C@](C)(O)[C@H](NC)[C@H]1O [NETILMICIN]
- ABSOLUTE BASOPHIL [1]: 32 cells/µL
- ABSOLUTE EOSINOPHIL [1]: 110 cells/µL
- ABSOLUTE LYMPHOCYTE [1]: 6630 cells/µL
- ABSOLUTE MONOCYTE [1]: 140 cells/µL
- ABSOLUTE SEGMENTED NEUTROPHIL [1]: 1170 cells/µL
- BASOPHIL [1]: 0.38% and 0.35%
- EOSINOPHIL [1]: 1.28% and 0.62%
- ERYTHROCYTE COUNT [1]: 7.45 x10E6/uL and 7.26 x10E6/uL
- HEMATOCRIT [1]: 45.74% and 47.97%
- HEMOGLOBIN [1]: 14.72 G/DL and 15.38 G/DL
- LEUKOCYTE COUNT [1]: 8.11 x10E3/uL and 8.68 x10E3/uL
- LYMPHOCYTE [1]: 81.3% and 86.77%
- MEAN CORPUSCULAR HEMOGLOBIN [1]: 19.76 pg and 21.18 pg
- MEAN CORPUSCULAR HEMOGLOBIN CONCENTRATION [1]: 32.16 G/DL and 32.05 G/DL
- MEAN CORPUSCULAR VOLUME [1]: 61.38 fL and 66.15 fL
- MONOCYTE [1]: 1.76% and 1.57%
- NEUTROPHIL [1]: 14.9% and 9.53%
- PLATELET COUNT [1]: 1322.4 x10E3/uL and 1786 x10E3/uL
- ALANINE AMINOTRANSFERASE [1]: 25.8 u/L and 20.5 u/L
- ALBUMIN [1]: 3.64 G/DL and 4.35 G/DL
- ALKALINE PHOSPHATASE [1]: 233.6 u/L and 300 u/L
- ASPARTATE AMINOTRANSFERASE [1]: 81.4 u/L and 86.75 u/L
- BLOOD UREA NITROGEN [1]: 14.4 mg/dL and 17 mg/dL
- CARBON DIOXIDE [1]: 29 mmol/L
- CHLORIDE [1]: 105.6 MEQ/L and 106.25 MEQ/L
- CHOLESTEROL [1]: 69.2 mg/dL and 51.25 mg/dL
- CREATINE PHOSPHOKINASE [1]: 384.75 u/L
- CREATININE [1]: 0.56 mg/dL and 0.47 mg/dL
- GLUCOSE [1]: 125.4 mg/dL and 128.75 mg/dL
- LACTATE DEHYDROGENASE [1]: 105.4 u/L and 145 u/L
- LIPASE [1]: 22.4 u/L and 13.25 u/L
- PHOSPHORUS [1]: 11.48 mg/dL and 11.8 mg/dL
- POTASSIUM [1]: 5.52 MEQ/L and 6.58 MEQ/L
- SODIUM [1]: 147 MEQ/L and 151 MEQ/L
- TOTAL BILIRUBIN [1]: 0.2 mg/dL and 0.33 mg/dL
- TOTAL PROTEIN [1]: 6.1 G/DL and 6.53 G/DL
- URIC ACID [1]: 1.06 mg/dL and 1.95 mg/dL
- ABSOLUTE BASOPHIL [2]: 130 cells/µL
- ABSOLUTE EOSINOPHIL [2]: 140 cells/µL
- ABSOLUTE LYMPHOCYTE [2]: 13500 cells/µL
- ABSOLUTE MONOCYTE [2]: 400 cells/µL
- ABSOLUTE SEGMENTED NEUTROPHIL [2]: 2330 cells/µL
- HEMATOCRIT [2]: 45.98%
- ABSOLUTE BASOPHIL [3]: 91 cells/µL
- ABSOLUTE EOSINOPHIL [3]: 110 cells/µL
- ABSOLUTE LYMPHOCYTE [3]: 9910 cells/µL
- ABSOLUTE MONOCYTE [3]: 210 cells/µL
- ABSOLUTE SEGMENTED NEUTROPHIL [3]: 1560 cells/µL
- BASOPHIL [3]: 0.77%
- EOSINOPHIL [3]: 0.92%
- ERYTHROCYTE COUNT [3]: 8.21 x10E6/uL
- HEMATOCRIT [3]: 47.53%
- HEMOGLOBIN [3]: 15.65 G/DL
- LEUKOCYTE COUNT [3]: 11.91 x10E3/uL
- LYMPHOCYTE [3]: 83.34%
- MEAN CORPUSCULAR HEMOGLOBIN [3]: 19.07 pg
- MEAN CORPUSCULAR HEMOGLOBIN CONCENTRATION [3]: 32.93 G/DL
- MEAN CORPUSCULAR VOLUME [3]: 57.9 fL
- MONOCYTE [3]: 1.68%
- NEUTROPHIL [3]: 12.97%
- PLATELET COUNT [3]: 1323.8 x10E3/uL
- CARBON DIOXIDE [2]: 25 mmol/L
- ALANINE AMINOTRANSFERASE [3]: 30 u/L
- ALBUMIN [3]: 3.71 G/DL
- ALKALINE PHOSPHATASE [3]: 186.8 u/L
- ASPARTATE AMINOTRANSFERASE [3]: 78.2 u/L
- BLOOD UREA NITROGEN [3]: 14.2 mg/dL
- CHLORIDE [3]: 105.4 MEQ/L
- CHOLESTEROL [3]: 44.9 mg/dL
- CREATINE PHOSPHOKINASE [3]: 334.3 u/L
- CREATININE [3]: 0.6 mg/dL
- GLUCOSE [3]: 147.2 mg/dL
- LACTATE DEHYDROGENASE [3]: 123.1 u/L
- LIPASE [3]: 9.6 u/L
- PHOSPHORUS [3]: 10.01 mg/dL
- POTASSIUM [3]: 6.57 MEQ/L
- SODIUM [3]: 149.5 MEQ/L
- TOTAL BILIRUBIN [3]: 0.21 mg/dL
- TOTAL PROTEIN [3]: 6.66 G/DL
- URIC ACID [3]: 1.26 mg/dL
- ABSOLUTE BASOPHIL [4]: 100 cells/µL
- ABSOLUTE EOSINOPHIL [4]: 100 cells/µL
- ABSOLUTE LYMPHOCYTE [4]: 9410 cells/µL
- ABSOLUTE MONOCYTE [4]: 270 cells/µL
- ABSOLUTE SEGMENTED NEUTROPHIL [4]: 2070 cells/µL
- BASOPHIL [4]: 0.82% and 0.23%
- EOSINOPHIL [4]: 0.84% and 0.53%
- ERYTHROCYTE COUNT [4]: 7.28 x10E6/uL and 7.2 x10E6/uL
- HEMATOCRIT [4]: 44.78% and 47.4%
- HEMOGLOBIN [4]: 14.6 G/DL and 14.93 G/DL
- LEUKOCYTE COUNT [4]: 12 x10E3/uL and 6.78 x10E3/uL
- LYMPHOCYTE [4]: 78.86% and 87.63%
- MEAN CORPUSCULAR HEMOGLOBIN [4]: 20.02 pg and 20.77 pg
- MEAN CORPUSCULAR HEMOGLOBIN CONCENTRATION [4]: 32.56 G/DL and 31.5 G/DL
- MEAN CORPUSCULAR VOLUME [4]: 61.44 fL and 65.9 fL
- MONOCYTE [4]: 2.18% and 1.53%
- NEUTROPHIL [4]: 16.76% and 9.17%
- PLATELET COUNT [4]: 1295.4 x10E3/uL and 1697.67 x10E3/uL
- ALANINE AMINOTRANSFERASE [4]: 28.4 u/L and 20.25 u/L
- ALBUMIN [4]: 3.44 G/DL and 4.28 G/DL
- ALKALINE PHOSPHATASE [4]: 235.6 u/L and 305.25 u/L
- ASPARTATE AMINOTRANSFERASE [4]: 91.8 u/L and 87.25 u/L
- BLOOD UREA NITROGEN [4]: 12 mg/dL and 14.25 mg/dL
- CARBON DIOXIDE [4]: 24.75 mmol/L
- CHLORIDE [4]: 108.2 MEQ/L and 108.25 MEQ/L
- CHOLESTEROL [4]: 53.8 mg/dL and 53 mg/dL
- CREATINE PHOSPHOKINASE [4]: 194.6 u/L and 310.75 u/L
- CREATININE [4]: 0.5 mg/dL and 0.47 mg/dL
- GLUCOSE [4]: 137 mg/dL and 119.5 mg/dL
- LACTATE DEHYDROGENASE [4]: 83.75 u/L and 121.25 u/L
- LIPASE [4]: 16 u/L and 7 u/L
- PHOSPHORUS [4]: 10.04 mg/dL and 12.5 mg/dL
- POTASSIUM [4]: 6.52 MEQ/L and 5.8 MEQ/L
- SODIUM [4]: 151.2 MEQ/L and 152.75 MEQ/L
- TOTAL BILIRUBIN [4]: 0.12 mg/dL and 0.28 mg/dL
- TOTAL PROTEIN [4]: 5.86 G/DL and 6.35 G/DL
- URIC ACID [4]: 1.12 mg/dL and 2.02 mg/dL
- ABSOLUTE BASOPHIL [5]: 76 cells/µL
- ABSOLUTE EOSINOPHIL [5]: 100 cells/µL
- ABSOLUTE LYMPHOCYTE [5]: 7150 cells/µL
- ABSOLUTE MONOCYTE [5]: 160 cells/µL
- ABSOLUTE SEGMENTED NEUTROPHIL [5]: 980 cells/µL
- ABSOLUTE BASOPHIL [6]: 110 cells/µL
- ABSOLUTE EOSINOPHIL [6]: 110 cells/µL
- ABSOLUTE LYMPHOCYTE [6]: 11000 cells/µL
- ABSOLUTE MONOCYTE [6]: 220 cells/µL
- ABSOLUTE SEGMENTED NEUTROPHIL [6]: 1680 cells/µL
- BASOPHIL [6]: 0.84%
- EOSINOPHIL [6]: 0.81%
- ERYTHROCYTE COUNT [6]: 8.07 x10E6/uL
- HEMATOCRIT [6]: 45.66%
- HEMOGLOBIN [6]: 15.06 G/DL
- LEUKOCYTE COUNT [6]: 13.21 x10E3/uL
- LYMPHOCYTE [6]: 83.38%
- MEAN CORPUSCULAR HEMOGLOBIN [6]: 18.66 pg
- MEAN CORPUSCULAR HEMOGLOBIN CONCENTRATION [6]: 32.99 G/DL
- MEAN CORPUSCULAR VOLUME [6]: 56.56 fL
- MONOCYTE [6]: 1.71%
- NEUTROPHIL [6]: 12.78%
- PLATELET COUNT [6]: 1402.4 x10E3/uL
- CARBON DIOXIDE [5]: 27 mmol/L
- ALANINE AMINOTRANSFERASE [6]: 27.9 u/L
- ALBUMIN [6]: 3.58 G/DL
- ALKALINE PHOSPHATASE [6]: 144.2 u/L
- ASPARTATE AMINOTRANSFERASE [6]: 86.4 u/L
- BLOOD UREA NITROGEN [6]: 16.3 mg/dL
- CHLORIDE [6]: 108.5 MEQ/L
- CHOLESTEROL [6]: 59.4 mg/dL
- CREATINE PHOSPHOKINASE [6]: 139.4 u/L
- CREATININE [6]: 0.7 mg/dL
- GLUCOSE [6]: 120.4 mg/dL
- LACTATE DEHYDROGENASE [6]: 85.6 u/L
- LIPASE [6]: 22.9 u/L
- PHOSPHORUS [6]: 8.66 mg/dL
- POTASSIUM [6]: 5.83 MEQ/L
